# Source: PubChem BioAssay AID1745844 (Carcinogenic Potency Database (CPDB), 2022)
# The source made the active and inactive calls. How the calls were made is not given here.
# Tested on: rodent lifetime carcinogenesis bioassay, tumor incidence TD50
# Assay: carcinogenic potency in animals, long-term in vivo studies, CPDB compilation (AID 1745844)
structure (smiles),measurement,setting,value
O=C(O)c1ccc([N+](=O)[O-])cc1,TD50,"mouse, strain B6C3F1, females, in feed, site: any site (literature study), lesion: several types, types named in the paper, dosed 103 weeks, study length 104 weeks",3160 mg/kg/day (inactive)
same,TD50,"mouse, strain B6C3F1, females, in feed, site: lung, lesion: alveolar/bronchiolar adenoma + alveolar/bronchiolar carcinoma, dosed 103 weeks, study length 104 weeks",2330 mg/kg/day
same,carcinogen call,"mouse, strain B6C3F1, males, in feed, site: any site (literature study), lesion: several types, types named in the paper, dosed 103 weeks, study length 104 weeks",negative (inactive)
same,TD50,"mouse, strain B6C3F1, males, in feed, site: lung, lesion: alveolar/bronchiolar adenoma + alveolar/bronchiolar carcinoma, dosed 103 weeks, study length 104 weeks",4350 mg/kg/day
same,TD50,"rat, strain Fischer 344, females, in feed, site: any site (literature study), lesion: several types, types named in the paper, dosed 103 weeks, study length 104 weeks",373 mg/kg/day
same,TD50,"rat, strain Fischer 344, females, in feed, site: clitoral gland, lesion: adenoma + adenoma, bilateral + carcinoma + carcinoma, bilateral, dosed 103 weeks, study length 104 weeks",287 mg/kg/day
same,TD50,"rat, strain Fischer 344, females, in feed, site: clitoral gland, lesion: adenoma + adenoma, bilateral, dosed 103 weeks, study length 104 weeks",439 mg/kg/day
same,TD50,"rat, strain Fischer 344, females, in feed, site: clitoral gland, lesion: carcinoma + carcinoma, bilateral, dosed 103 weeks, study length 104 weeks",1080 mg/kg/day
same,TD50,"rat, strain Fischer 344, females, in feed, site: uterus, lesion: endometrial stromal polyp + endometrial stromal sarcoma, dosed 103 weeks, study length 104 weeks",197 mg/kg/day
same,TD50,"rat, strain Fischer 344, females, in feed, site: uterus, lesion: endometrial stromal polyp, dosed 103 weeks, study length 104 weeks",220 mg/kg/day
same,TD50,"rat, strain Fischer 344, males, in feed, site: preputial gland, lesion: carcinoma + carcinoma, bilateral, dosed 103 weeks, study length 104 weeks",926 mg/kg/day (inactive)
CCN(CC)CCCNC(=O)Cn1ncc(-c2ccccc2)c1-c1ccccc1,carcinogen call,"rat, strain Charles River CD (Sprague-Dawley), females, by gavage, site: liver, lesion: one or several types, types not named, dosed 52 weeks, study length 52 weeks",negative (inactive)
same,carcinogen call,"rat, strain Charles River CD (Sprague-Dawley), males, by gavage, site: liver, lesion: one or several types, types not named, dosed 52 weeks, study length 52 weeks",negative (inactive)
O=[N+]([O-])OCC(CO[N+](=O)[O-])O[N+](=O)[O-],TD50,"rat, strain Charles River CD (Sprague-Dawley), females, in feed, site: liver, lesion: several types, types named in the paper, dosed 104 weeks, study length 104 weeks",329 mg/kg/day
same,TD50,"rat, strain Charles River CD (Sprague-Dawley), males, in feed, site: liver, lesion: several types, types named in the paper, dosed 104 weeks, study length 104 weeks",221 mg/kg/day
same,TD50,"rat, strain Charles River CD (Sprague-Dawley), males, in feed, site: testis, lesion: interstitial-cell tumor, dosed 104 weeks, study length 104 weeks",405 mg/kg/day
same,TD50,"rat, strain Fischer 344, males, in feed, site: liver, lesion: cholangiocarcinoma, dosed 70 weeks, study length 70 weeks",681 mg/kg/day
same,TD50,"rat, strain Fischer 344, males, in feed, site: liver, lesion: cholangiocarcinoma, dosed 76 weeks, study length 76 weeks",509 mg/kg/day
same,TD50,"rat, strain Fischer 344, males, in feed, site: liver, lesion: cholangioma, dosed 76 weeks, study length 76 weeks",211 mg/kg/day
same,TD50,"rat, strain Fischer 344, males, in feed, site: liver, lesion: hepatocellular adenoma, dosed 70 weeks, study length 70 weeks",179 mg/kg/day
same,TD50,"rat, strain Fischer 344, males, in feed, site: liver, lesion: hepatocellular adenoma, dosed 76 weeks, study length 76 weeks",106 mg/kg/day
same,TD50,"rat, strain Fischer 344, males, in feed, site: liver, lesion: several types, types named in the paper, dosed 70 weeks, study length 70 weeks",113 mg/kg/day
same,carcinogen call,"rat, strain Fischer 344, males, in feed, site: liver, lesion: several types, types named in the paper, dosed 76 weeks, study length 76 weeks",positive
